Values of other authors as cited in PubChem BioAssay AID1259409 (Chemical Carcinogenesis Research Information System (CCRIS), 2018).

System: rodent chemically induced tumor inhibition, incidence and multiplicity
Assay: CCRIS tumor inhibitor studies
Settings: for tumour outcome (control, treated, inhibition, significance): Promoter: NONE USED; for outcome: Carcinogen: 1,2-Dimethylhydrazine dihydrochloride (306-37-6), Route [Inhibitor]: Oral, Species: Rat, Strain/Sex: Fischer 344/male, Target Tissue: Type of Lesion: Colon: tumors, Dose [Carcinogen]: 20 mg/kg once a wk for 4 wk, Promoter: None

Q: For CCOC(=O)C(C)(C)Oc1ccc(Cl)cc1, which “tumour outcome (control, treated, inhibition, significance)” value (Carcinogen: N-NITROSOBIS(2-HYDROXYPROPYL)AMINE, 53609-64-6, Dose [Inhibitor]: 0.25% IN DIET FOLLOWING LAST CARCINOGEN DOSE FOR 30 WK (STUDY DURATION: 35 WK), Route [Inhibitor]: ORAL, Species: HAMSTER, Strain/Sex: SYRIAN/MALE, Target Tissue: Type of Lesion: KIDNEY: RENAL CELL CARCINOMA, Dose [Carcinogen]: 500 MG/KG BW 1/WK FOR 5 WK) is on record?
A: 1/17 (6%), 2/16 (13%), -117%, not calculated

Q: And the “tumour outcome (control, treated, inhibition, significance)” value (Carcinogen: N-NITROSOBIS(2-HYDROXYPROPYL)AMINE, 53609-64-6, Dose [Inhibitor]: 0.25% IN DIET FOLLOWING LAST CARCINOGEN DOSE FOR 30 WK (STUDY DURATION: 35 WK), Route [Inhibitor]: ORAL, Species: HAMSTER, Strain/Sex: SYRIAN/MALE, Target Tissue: Type of Lesion: LUNG: ADENOCARCINOMA, Dose [Carcinogen]: 500 MG/KG BW 1/WK FOR 5 WK)?
A: 3/17 (18%), 0/16 (0%), 100%, not calculated

Q: What about the “tumour outcome (control, treated, inhibition, significance)” value (Carcinogen: N-NITROSOBIS(2-HYDROXYPROPYL)AMINE, 53609-64-6, Dose [Inhibitor]: 0.25% IN DIET FOLLOWING LAST CARCINOGEN DOSE FOR 30 WK (STUDY DURATION: 35 WK), Route [Inhibitor]: ORAL, Species: HAMSTER, Strain/Sex: SYRIAN/MALE, Target Tissue: Type of Lesion: LUNG: ADENOMA, Dose [Carcinogen]: 500 MG/KG BW 1/WK FOR 5 WK) of the same molecule?
A: 16/17 (94%), 10/16 (63%), 33%, not calculated

Q: What about the “tumour outcome (control, treated, inhibition, significance)” value (Carcinogen: N-NITROSOBIS(2-HYDROXYPROPYL)AMINE, 53609-64-6, Dose [Inhibitor]: 0.25% IN DIET FOLLOWING LAST CARCINOGEN DOSE FOR 30 WK (STUDY DURATION: 35 WK), Route [Inhibitor]: ORAL, Species: HAMSTER, Strain/Sex: SYRIAN/MALE, Target Tissue: Type of Lesion: PANCREAS: ADENOCARCINOMA, Dose [Carcinogen]: 500 MG/KG BW 1/WK FOR 5 WK) of the same molecule?
A: 8/17 (47%), 3/16 (19%), 60%, not calculated

Q: And the “tumour outcome (control, treated, inhibition, significance)” value (Carcinogen: N-NITROSOBIS(2-HYDROXYPROPYL)AMINE, 53609-64-6, Dose [Inhibitor]: 0.25% IN DIET FOLLOWING LAST CARCINOGEN DOSE FOR 30 WK (STUDY DURATION: 35 WK), Route [Inhibitor]: ORAL, Species: HAMSTER, Strain/Sex: SYRIAN/MALE, Target Tissue: Type of Lesion: PANCREAS: ADENOMA, Dose [Carcinogen]: 500 MG/KG BW 1/WK FOR 5 WK)?
A: 5/17 (29%), 4/16 (25%), 14%, not calculated

Q: What about the “tumour outcome (control, treated, inhibition, significance)” value (Carcinogen: N-NITROSOBIS(2-HYDROXYPROPYL)AMINE, 53609-64-6, Dose [Inhibitor]: 0.5% IN DIET FOLLOWING LAST CARCINOGEN DOSE FOR 30 WK (STUDY DURATION: 35 WK), Route [Inhibitor]: ORAL, Species: HAMSTER, Strain/Sex: SYRIAN/MALE, Target Tissue: Type of Lesion: KIDNEY: RENAL CELL CARCINOMA, Dose [Carcinogen]: 500 MG/KG BW 1/WK FOR 5 WK) of the same molecule?
A: 1/17 (6%), 3/17 (18%), -200%, not calculated

Q: What about the “tumour outcome (control, treated, inhibition, significance)” value (Carcinogen: N-NITROSOBIS(2-HYDROXYPROPYL)AMINE, 53609-64-6, Dose [Inhibitor]: 0.5% IN DIET FOLLOWING LAST CARCINOGEN DOSE FOR 30 WK (STUDY DURATION: 35 WK), Route [Inhibitor]: ORAL, Species: HAMSTER, Strain/Sex: SYRIAN/MALE, Target Tissue: Type of Lesion: LUNG: ADENOCARCINOMA, Dose [Carcinogen]: 500 MG/KG BW 1/WK FOR 5 WK) of the same molecule?
A: 3/17 (18%), 2/17 (12%), 33%, not calculated

Q: And the “tumour outcome (control, treated, inhibition, significance)” value (Carcinogen: N-NITROSOBIS(2-HYDROXYPROPYL)AMINE, 53609-64-6, Dose [Inhibitor]: 0.5% IN DIET FOLLOWING LAST CARCINOGEN DOSE FOR 30 WK (STUDY DURATION: 35 WK), Route [Inhibitor]: ORAL, Species: HAMSTER, Strain/Sex: SYRIAN/MALE, Target Tissue: Type of Lesion: LUNG: ADENOMA, Dose [Carcinogen]: 500 MG/KG BW 1/WK FOR 5 WK)?
A: 16/17 (94%), 9/17 (53%), 44%, p<0.05

Q: What about the “tumour outcome (control, treated, inhibition, significance)” value (Carcinogen: N-NITROSOBIS(2-HYDROXYPROPYL)AMINE, 53609-64-6, Dose [Inhibitor]: 0.5% IN DIET FOLLOWING LAST CARCINOGEN DOSE FOR 30 WK (STUDY DURATION: 35 WK), Route [Inhibitor]: ORAL, Species: HAMSTER, Strain/Sex: SYRIAN/MALE, Target Tissue: Type of Lesion: PANCREAS: ADENOCARCINOMA, Dose [Carcinogen]: 500 MG/KG BW 1/WK FOR 5 WK) of the same molecule?
A: 8/17 (47%), 1/17 (6%), 87%, p<0.05

Q: And the “tumour outcome (control, treated, inhibition, significance)” value (Carcinogen: N-NITROSOBIS(2-HYDROXYPROPYL)AMINE, 53609-64-6, Dose [Inhibitor]: 0.5% IN DIET FOLLOWING LAST CARCINOGEN DOSE FOR 30 WK (STUDY DURATION: 35 WK), Route [Inhibitor]: ORAL, Species: HAMSTER, Strain/Sex: SYRIAN/MALE, Target Tissue: Type of Lesion: PANCREAS: ADENOMA, Dose [Carcinogen]: 500 MG/KG BW 1/WK FOR 5 WK)?
A: 5/17 (29%), 2/17 (12%), 59%, not calculated

Q: With O=c1ccc2cc(O[C@@H]3O[C@H](CO)[C@@H](O)[C@H](O)[C@H]3O)c(O)cc2o1 as the molecule, how does the outcome (Dose [Inhibitor]: 0.05% in tap water beginning 7 d before first carcinogen administration to end of last carcinogen administration, animal) read?
A: 5 (31%) vs 10 (62.5% in positive controls) (p <0.05)

Q: And the outcome (Dose [Inhibitor]: 0.05% in tap water beginning after last carcinogen administration to end of 16 wk study)?
A: 9 (56.3%) vs 10 (62.5%) in positive controls; ns

Q: And the “tumour outcome (control, treated, inhibition, significance)” value (Carcinogen: BENZO[A]PYRENE, 50-32-8, Dose [Inhibitor]: 25 MG IN 0.1 ML DMSO 3/WK ADMINISTERED SIMULTANEOUSLY WITH CARCINOGEN FOR DURATION OF STUDY (STUDY DURATION: 368 D), Route [Inhibitor]: DERMAL, Species: MOUSE, Strain/Sex: ICR/FEMALE, Target Tissue: Type of Lesion: SKIN: PAPILLOMA, Dose [Carcinogen]: 5 UG IN 0.1 ML DMSO 3/WK FOR DURATION OF STUDY)?
A: 13/50 (26%), 0/50 (0%), 100%, not calculated

Q: And the “tumour outcome (control, treated, inhibition, significance)” value (Carcinogen: BENZO[A]PYRENE, 50-32-8, Dose [Inhibitor]: 25 MG IN 0.1 ML DMSO 3/WK ADMINISTERED SIMULTANEOUSLY WITH CARCINOGEN FOR DURATION OF STUDY (STUDY DURATION: 368 D), Route [Inhibitor]: DERMAL, Species: MOUSE, Strain/Sex: ICR/FEMALE, Target Tissue: Type of Lesion: SKIN: SQUAMOUS CARCINOMA, Dose [Carcinogen]: 5 UG IN 0.1 ML DMSO THAT ALSO CONTAINED AGENT, 3/WK, FOR DURATION OF STUDY)?
A: 6/50 (12%), 0/50 (0%), 100%, not calculated

Q: With C=C1C(=O)O[C@@H]2/C=C(\C)CCC=C(C)CC[C@@H]12 as the molecule, how does the “tumour outcome (control, treated, inhibition, significance)” value (Carcinogen: AZOXYMETHANE, 25843-45-2, Dose [Inhibitor]: 0, 0.02% IN DIET FOR 4 WK BEGINNING AT TIME OF CARCINOGEN TREATMENT (STUDY DURATION: 33 WK), Route [Inhibitor]: ORAL, Species: RAT, Strain/Sex: F344/MALE, Target Tissue: Type of Lesion: INTESTINE: ADENOMA OR ADENOCARCINOMA, Dose [Carcinogen]: 15 MG/KG BW 1/WK FOR 3 WK) read?
A: 15/30 (50%), 5/29 (17%), 66%, p<0.05

Q: Which results are given for CC(=O)[C@@H]1C[C@@H]2C[C@H]1[C@@H](N=C=S)C2?
A: tumour outcome (control, treated, inhibition, significance) (Carcinogen: 7,12-DIMETHYLBENZ[A]ANTHRACENE, 57-97-6, Dose [Inhibitor]: 0, 75 UMOL/D IN 0.5 ML EMULPHOR EL-620 FOR 5 CONSECUTIVE DAYS BEGINNING AT 47 D OF AGE (STUDY DURATION: 155 D), Route [Inhibitor]: GAVAGE, Species: RAT, Strain/Sex: SPRAGUE-DAWLEY/FEMALE, Target Tissue: Type of Lesion: MAMMARY GLAND: TUMOR, Dose [Carcinogen]: 8 MG IN 1 ML SESAME OIL ONCE AT 50 D OF AGE): 17/25 (68%), 5/20 (25%), 63%, p<0.05; tumour outcome (control, treated, inhibition, significance) (Carcinogen: 7,12-DIMETHYLBENZ[A]ANTHRACENE, 57-97-6, Dose [Inhibitor]: 0, 150 UMOL/D IN 0.5 ML EMULPHOR EL-620 FOR 5 CONSECUTIVE DAYS BEGINNING AT 47 D OF AGE (STUDY DURATION: 155 D), Route [Inhibitor]: GAVAGE, Species: RAT, Strain/Sex: SPRAGUE-DAWLEY/FEMALE, Target Tissue: Type of Lesion: MAMMARY GLAND: TUMOR, Dose [Carcinogen]: 8 MG IN 1 ML SESAME OIL ONCE AT 50 D OF AGE): 17/25 (68%), 5/20 (25%), 63%, p<0.05

Q: For CCC(C)(C)C(=O)O[C@H]1C[C@@H](C)C=C2C=C[C@H](C)[C@H](CC[C@@H]3C[C@@H](O)CC(=O)O3)[C@H]21, which “tumour outcome (control, treated, inhibition, significance)” value (Carcinogen: 1,2-DIMETHYLHYDRAZINE, 540-73-8, Dose [Inhibitor]: 0, 0.02% IN DIET FOR 25 WK (STUDY DURATION: 25 WK), Route [Inhibitor]: ORAL, Species: MOUSE, Strain/Sex: ICR/FEMALE, Target Tissue: Type of Lesion: COLON: TUMOR, Dose [Carcinogen]: 10 MG/KG BW 1/WK FOR 15 WK) is on record?
A: 16/30 (53%), 12/30 (40%), 25%, not significant

Q: What about the “tumour outcome (control, treated, inhibition, significance)” value (Carcinogen: 1,2-DIMETHYLHYDRAZINE, 540-73-8, Dose [Inhibitor]: 0, 0.1% IN DIET FOR 25 WK (STUDY DURATION: 25 WK), Route [Inhibitor]: ORAL, Species: MOUSE, Strain/Sex: ICR/FEMALE, Target Tissue: Type of Lesion: COLON: TUMOR, Dose [Carcinogen]: 10 MG/KG BW 1/WK FOR 15 WK) of the same molecule?
A: 16/30 (53%), 11/30 (37%), 30%, not significant
